Test results as given in ChEMBL document CHEMBL1909294, “Translating clinical findings into knowledge in drug safety evaluation--drug induced liver injury prediction system (DILIps)” (PLoS Comput Biol, 2011).

How the values were obtained:
Hepatotoxicity [1] = test system: Hepatotoxicity;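 on HepSE Combined Scores: combined hepatic side effect score as listed in the training data of the Drug Induced Liver Injury Prediction System (DILIps)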;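 on HepSE cirrhosis: cirrhosis hepatic side effect score taken from the DILIps (drug-induced liver injury prediction) training set; call rule not given here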;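 on HepSE hepatitis: Hepatitis-related hepatic side effect score taken from the training data of DILIps, a prediction system for drug-induced liver injury; call rule not given here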;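 on HepSE hepatomegaly: hepatic side effect score for hepatomegaly, taken from the training set of the DILIps drug-induced liver injury prediction system; call rule not given here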;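 on HepSE jaundice: Jaundice-related hepatic side-effect score drawn from the training data of the DILIps (drug-induced liver injury prediction system); call rule not given here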;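 on HepSE liver function tests abnormal: hepatic side effect score taken from the DILIps (drug-induced liver injury prediction system) training data, here covering abnormal liver function test findings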
Hepatotoxicity [2] = test system: Hepatotoxicity; remark: listed apart in the source;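 on HepSE Combined Scores: combined hepatic side effect score as listed in the training data of the Drug Induced Liver Injury Prediction System (DILIps)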;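 on HepSE cirrhosis: cirrhosis hepatic side effect score taken from the DILIps (drug-induced liver injury prediction) training set; call rule not given here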;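 on HepSE hepatitis: Hepatitis-related hepatic side effect score taken from the training data of DILIps, a prediction system for drug-induced liver injury; call rule not given here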;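 on HepSE hepatomegaly: hepatic side effect score for hepatomegaly, taken from the training set of the DILIps drug-induced liver injury prediction system; call rule not given here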;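 on HepSE jaundice: Jaundice-related hepatic side-effect score drawn from the training data of the DILIps (drug-induced liver injury prediction system); call rule not given here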;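 on HepSE liver function tests abnormal: hepatic side effect score taken from the DILIps (drug-induced liver injury prediction system) training data, here covering abnormal liver function test findings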
Hepatotoxicity [3] = test system: Hepatotoxicity; remark: listed apart in the source;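 on HepSE Combined Scores: combined hepatic side effect score as listed in the training data of the Drug Induced Liver Injury Prediction System (DILIps)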;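 on HepSE cirrhosis: cirrhosis hepatic side effect score taken from the DILIps (drug-induced liver injury prediction) training set; call rule not given here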;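 on HepSE hepatitis: Hepatitis-related hepatic side effect score taken from the training data of DILIps, a prediction system for drug-induced liver injury; call rule not given here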;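 on HepSE hepatomegaly: hepatic side effect score for hepatomegaly, taken from the training set of the DILIps drug-induced liver injury prediction system; call rule not given here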;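 on HepSE jaundice: Jaundice-related hepatic side-effect score drawn from the training data of the DILIps (drug-induced liver injury prediction system); call rule not given here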;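 on HepSE liver function tests abnormal: hepatic side effect score taken from the DILIps (drug-induced liver injury prediction system) training data, here covering abnormal liver function test findings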
Hepatotoxicity [4] = test system: Hepatotoxicity; remark: listed apart in the source;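 on HepSE Combined Scores: combined hepatic side effect score as listed in the training data of the Drug Induced Liver Injury Prediction System (DILIps)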;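 on HepSE hepatitis: Hepatitis-related hepatic side effect score taken from the training data of DILIps, a prediction system for drug-induced liver injury; call rule not given here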;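 on HepSE hepatomegaly: hepatic side effect score for hepatomegaly, taken from the training set of the DILIps drug-induced liver injury prediction system; call rule not given here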;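 on HepSE jaundice: Jaundice-related hepatic side-effect score drawn from the training data of the DILIps (drug-induced liver injury prediction system); call rule not given here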;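 on HepSE liver function tests abnormal: hepatic side effect score taken from the DILIps (drug-induced liver injury prediction system) training data, here covering abnormal liver function test findings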
Hepatotoxicity [5] = test system: Hepatotoxicity; remark: listed apart in the source
Hepatotoxicity [6] = test system: Hepatotoxicity; remark: listed apart in the source
Hepatotoxicity [7] = test system: Hepatotoxicity; remark: listed apart in the source
Hepatotoxicity [8] = test system: Hepatotoxicity; remark: listed apart in the source
Hepatotoxicity [9] = test system: Hepatotoxicity; remark: listed apart in the source
Hepatotoxicity [10] = test system: Hepatotoxicity; remark: listed apart in the source
Hepatotoxicity [11] = test system: Hepatotoxicity; remark: listed apart in the source
Hepatotoxicity [12] = test system: Hepatotoxicity; remark: listed apart in the source
Hepatotoxicity [13] = test system: Hepatotoxicity; remark: listed apart in the source
Hepatotoxicity [14] = test system: Hepatotoxicity; remark: listed apart in the source

SMILES | HepSE_hepatomegaly (Hepatotoxicity [1]) | HepSE_Combined Scores (Hepatotoxicity [2]) | HepSE_jaundice (Hepatotoxicity [3]) | HepSE_hepatitis (Hepatotoxicity [4]) | HepSE_liver function tests abnormal (Hepatotoxicity [5]) | HepSE_cirrhosis (Hepatotoxicity [6]) | HepSE_hepatic failure (Hepatotoxicity [7]) | HepSE_cholecystitis (Hepatotoxicity [8]) | HepSE_elevated liver function tests (Hepatotoxicity [9]) | HepSE_liver disease (Hepatotoxicity [10]) | HepSE_bilirubinemia (Hepatotoxicity [11]) | HepSE_cholelithiasis (Hepatotoxicity [12]) | HepSE_liver fatty (Hepatotoxicity [13]) | HepSE_hepatic necrosis (Hepatotoxicity [14]) | further results
CC(C)(C)NC[C@H](O)COc1ccccc1C1CCCC1 [PENBUTOLOL] | 0 | 0 | 0 | 0 | 0 | 0 | 0 | 0 | 0 | 0 | 0 | 0 | 0 | 0 | –
NCC1(CC(=O)O)CCCCC1 [GABAPENTIN] | 1 | 8 | 1 | 1 | 1 | 0 | 1 | 1 | 1 | 0 | 0 | 1 | 0 | 0 | –
COc1cc([C@@H]2c3cc4c(cc3[C@@H](O[C@@H]3O[C@@H]5CO[C@@H](c6cccs6)O[C@H]5[C@H](O)[C@H]3O)[C@H]3COC(=O)[C@H]23)OCO4)cc(OC)c1O [TENIPOSIDE] | 0 | 0 | 0 | 0 | 0 | 0 | 0 | 0 | 0 | 0 | 0 | 0 | 0 | 0 | –
CC(=O)[C@@]1(O)CC[C@H]2[C@@H]3C[C@H](C)C4=CC(=O)CC[C@]4(C)[C@H]3CC[C@@]21C | – | – | – | – | – | – | – | – | – | – | – | – | – | – | HepSE_hepatomegaly (Hepatotoxicity [1]; Liver): 1; HepSE_Combined Scores (Hepatotoxicity [2]; Liver): 5; HepSE_jaundice (Hepatotoxicity [3]; Liver): 1; HepSE_hepatitis (Hepatotoxicity [4]; Liver): 1; HepSE_liver function tests abnormal (Hepatotoxicity [5]; Liver): 0; HepSE_cirrhosis (Hepatotoxicity [6]; Liver): 0; HepSE_hepatic failure (Hepatotoxicity [7]; Liver): 1; HepSE_cholecystitis (Hepatotoxicity [8]; Liver): 0; HepSE_elevated liver function tests (Hepatotoxicity [9]; Liver): 0; HepSE_liver disease (Hepatotoxicity [10]; Liver): 0; HepSE_bilirubinemia (Hepatotoxicity [11]; Liver): 0; HepSE_cholelithiasis (Hepatotoxicity [12]; Liver): 1; HepSE_liver fatty (Hepatotoxicity [13]; Liver): 0; HepSE_hepatic necrosis (Hepatotoxicity [14]; Liver): 0
CC[C@H](C)C[C@H](C)CCCCCCCCC(=O)N[C@H]1C[C@@H](O)[C@@H](NCCN)NC(=O)[C@@H]2[C@@H](O)CCN2C(=O)[C@H]([C@H](O)CCN)NC(=O)[C@H]([C@H](O)[C@@H](O)c2ccc(O)cc2)NC(=O)[C@@H]2C[C@@H](O)CN2C(=O)[C@H]([C@@H](C)O)NC1=O [CASPOFUNGIN] | 1 | 5 | 1 | 0 | 0 | 0 | 1 | 0 | 0 | 0 | 1 | 0 | 0 | 1 | –
CCCCCCCCCCCCCCCCCCCCCCO [DOCOSANOL] | 0 | 0 | 0 | 0 | 0 | 0 | 0 | 0 | 0 | 0 | 0 | 0 | 0 | 0 | –
CC1(C)C(C=C(Cl)Cl)C1C(=O)OCc1cccc(Oc2ccccc2)c1 (stereo not drawn) [PERMETHRIN] | 0 | 0 | 0 | 0 | 0 | 0 | 0 | 0 | 0 | 0 | 0 | 0 | 0 | 0 | –
CC(O)(CS(=O)(=O)c1ccc(F)cc1)C(=O)Nc1ccc(C#N)c(C(F)(F)F)c1 (stereo not drawn) [BICALUTAMIDE] | 0 | 3 | 1 | 0 | 1 | 0 | 1 | 0 | 0 | 0 | 0 | 0 | 0 | 0 | –
CC1(C)S[C@@H]2[C@H](NC(=O)C(C(=O)Oc3ccc4c(c3)CCC4)c3ccccc3)C(=O)N2[C@H]1C(=O)[O-].[Na+] (stereo partly drawn) [CARBENICILLIN INDANYL SODIUM] | 0 | 0 | 0 | 0 | 0 | 0 | 0 | 0 | 0 | 0 | 0 | 0 | 0 | 0 | –
C=CCN1C[C@H](C(=O)N(CCCN(C)C)C(=O)NCC)C[C@@H]2c3cccc4[nH]cc(c34)C[C@H]21 [CABERGOLINE] | 0 | 1 | 0 | 0 | 1 | 0 | 0 | 0 | 0 | 0 | 0 | 0 | 0 | 0 | –
CCCN1C[C@H](CSC)C[C@@H]2c3cccc4[nH]cc(c34)C[C@H]21 [PERGOLIDE] | 1 | 6 | 1 | 1 | 1 | 0 | 0 | 1 | 0 | 0 | 0 | 1 | 0 | 0 | –
CCC(=O)O[C@](Cc1ccccc1)(c1ccccc1)[C@H](C)CN(C)C [PROPOXYPHENE] | 0 | 2 | 1 | 0 | 1 | 0 | 0 | 0 | 0 | 0 | 0 | 0 | 0 | 0 | –
